Experimental findings from patent US11007196B1, “Method for preparing composition of matter comprising fluorouracil and zinc-mercury-selenium quantum dot” (priority 2020, dated 2021) are described below.

The test system of this data set is human gastric cancer MGC-803 cells.

Procedure: Pharmaceutical reagents were divided into four groups including ZnHgSe quantum dot group, DMF group, DMF-QD group and blank control group. Human gastric cancer MGC-803 cells in exponential phase were digested with trypsin, followed by addition of medium containing 10% fetal bovine serum to make a single cell suspension. The cells were seeded in a 96-well cell culture plate (100 μL of cell suspension was added to each well, containing 9×10^3 cells) and cultured in an incubator of 37° C. and 5% CO2 for 24 h until the cells adhered to the wall of the 96-well plate. Three groups of drug solutions with concentration gradients were added (ZnHgSe quantum dot gradient: 2400 μg·mL^−1, 1200 μg·mL^−1, 600 μg mL^−1, 300 μg·mL^−1, 150 μg·mL^−1, and 75 μg·mL^−1; DMF gradient: 800 μg mL^−1, 400 μg·mL^−1, 200 μg·mL^−1, 100 μg·mL^−1, 50 μg·mL^−1, and 25 μg·mL^−1; corresponding DMF-QD gradient was determined according to DMF concentration by equivalent conversion). Each group was repeated with 6 wells, with an additional zero-adjustment well and a control well. […] The absorbance value OD of each well was measured by an enzyme-linked immunosorbent detector at a wavelength of 490 nm, and the cell growth inhibition rate (IC50) was calculated. IC50 value was calculated according to the modified Karber's method: […]

In the case of “dextran-magnetic layered double hydroxide-fluorouracil [DMF]”, the “cytotoxicity per unit mass relative to quantum dots” value was “about 2.6 times”.
